Test results as given in ChEMBL document CHEMBL4052796, “Design, synthesis and biological evaluation of dual acetylcholinesterase and phosphodiesterase 5A inhibitors in treatment for Alzheimer's disease” (Bioorg Med Chem Lett, 2017).

How the values were obtained:
Acetylcholinesterase = Acetylcholinesterase (Homo sapiens, UniProt P22303); assay: Inhibition of AChE (unknown origin) using acetylthiocholine as substrate by Ellman's method
[1] = molecular target: cGMP-specific 3',5'-cyclic phosphodiesterase (Homo sapiens, UniProt O76074); assay: Inhibition of human PDE5A preincubated for 30 mins followed by TMB substrate addition by spectrophotometry
A549 = assay: Cytotoxicity against human A549 cells at 50 ug/ml after 24 hrs by CCK-8 assay; type: cell-based; conditions: a549, 24 h

Sequence of Acetylcholinesterase (P22303 whole entry): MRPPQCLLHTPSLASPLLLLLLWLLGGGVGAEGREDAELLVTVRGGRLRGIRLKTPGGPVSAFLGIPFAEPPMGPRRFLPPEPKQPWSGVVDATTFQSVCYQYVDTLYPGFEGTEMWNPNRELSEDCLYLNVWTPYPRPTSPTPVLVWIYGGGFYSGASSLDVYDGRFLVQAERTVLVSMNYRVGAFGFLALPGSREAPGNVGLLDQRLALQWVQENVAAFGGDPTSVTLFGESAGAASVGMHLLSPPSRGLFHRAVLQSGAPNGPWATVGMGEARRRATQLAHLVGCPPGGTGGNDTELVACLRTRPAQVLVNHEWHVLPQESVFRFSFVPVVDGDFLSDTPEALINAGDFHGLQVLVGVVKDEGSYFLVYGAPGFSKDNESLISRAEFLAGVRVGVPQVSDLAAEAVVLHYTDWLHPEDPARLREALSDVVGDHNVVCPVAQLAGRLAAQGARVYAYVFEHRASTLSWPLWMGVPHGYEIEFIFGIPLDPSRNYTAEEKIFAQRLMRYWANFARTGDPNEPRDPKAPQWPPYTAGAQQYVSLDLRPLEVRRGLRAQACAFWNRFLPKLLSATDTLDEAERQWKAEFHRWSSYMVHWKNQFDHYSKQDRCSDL

Row | Structure (SMILES) | IC50 (Acetylcholinesterase) | IC50 [1] | Activity (A549)
1 | COc1ccc(NCc2ccc3c(c2)C(=O)C(=O)N3C(=O)c2ccccc2)cc1 | 0.17 µM | 100 µM | –
2 | CN1CCN(Cc2ccc3c(c2)C(=O)C(=O)N3C(=O)c2ccccc2)CC1 | 0.0479 µM | > 1000 µM | –
3 | COC(=O)C(=O)c1cc(C)ccc1NC(=O)c1ccccc1 | > 1 µM | – | –
4 | O=C(O)CCC(=O)NCc1ccc2c(c1)CC(=O)N2C(=O)c1ccccc1 | > 1 µM | 17.6 µM | –
5 | CCN(CC)Cc1ccc(NC(=O)c2ccccc2)c(C(=O)C(=O)N(CC)CC)c1 | 0.0447 µM | 158 µM | Non-Toxic
6 | Cc1ccc2c(c1)C(=O)C(=O)N2C(=O)c1ccccc1 | > 1 µM | 746 µM | –
7 | Cc1ccc2c(c1)C(=O)C(=O)N2Cc1ccccc1[N+](=O)[O-] | 0.2 µM | 200 µM | –
8 | O=C(Nc1ccc(CN2CCOCC2)cc1C(=O)C(=O)N1C(=O)CCC1=O)c1ccccc1 | 0.229 µM | – | –
9 | O=C1C(=O)N(Cc2ccccc2[N+](=O)[O-])c2ccc(Br)cc21 | 0.263 µM | – | –
10 | O=C1C(=O)N(C(=O)c2ccccc2)c2ccc(CN3CCCCC3)cc21 | 0.0794 µM | 50 µM | Non-Toxic
11 | O=C1C(=O)N(C(=O)c2ccccc2)c2ccc(CNc3ccc(Br)cc3)cc21 | 0.398 µM | – | –
12 | Cc1ccc2c(c1)CC(=O)N2C(=O)c1ccccc1 | > 1 µM | 91.2 µM | –
13 | Cc1ccc2c(c1)C(=O)C(=O)N2C(=O)N(C)C | 0.144 µM | 100 µM | Non-Toxic
14 | O=C1C(=O)N(Cc2ccc(Br)cc2)c2ccc(Br)cc21 | 0.0891 µM | 131 µM | –
15 | Cc1ccc2c(c1)C(=O)C(=O)N2Cc1ccc(Br)cc1 | 0.204 µM | – | –
